Laboratory results: ChEMBL document CHEMBL1201862, “PubChem BioAssay data set” (2004)
Active and inactive are the calls of the source.

Experiments:
Leucine aminopeptidase = target: T1, Leucine aminopeptidase (Plasmodium falciparum 3D7, UniProt Q8IL11); test: P. falciparum M17LAP inhibitors, primary screen, biochemical, fluorogenic H-Leu-NHMec substrate, 1536-well (AID 1619); assay type: functional
T1 sequence (Q8IL11 whole entry): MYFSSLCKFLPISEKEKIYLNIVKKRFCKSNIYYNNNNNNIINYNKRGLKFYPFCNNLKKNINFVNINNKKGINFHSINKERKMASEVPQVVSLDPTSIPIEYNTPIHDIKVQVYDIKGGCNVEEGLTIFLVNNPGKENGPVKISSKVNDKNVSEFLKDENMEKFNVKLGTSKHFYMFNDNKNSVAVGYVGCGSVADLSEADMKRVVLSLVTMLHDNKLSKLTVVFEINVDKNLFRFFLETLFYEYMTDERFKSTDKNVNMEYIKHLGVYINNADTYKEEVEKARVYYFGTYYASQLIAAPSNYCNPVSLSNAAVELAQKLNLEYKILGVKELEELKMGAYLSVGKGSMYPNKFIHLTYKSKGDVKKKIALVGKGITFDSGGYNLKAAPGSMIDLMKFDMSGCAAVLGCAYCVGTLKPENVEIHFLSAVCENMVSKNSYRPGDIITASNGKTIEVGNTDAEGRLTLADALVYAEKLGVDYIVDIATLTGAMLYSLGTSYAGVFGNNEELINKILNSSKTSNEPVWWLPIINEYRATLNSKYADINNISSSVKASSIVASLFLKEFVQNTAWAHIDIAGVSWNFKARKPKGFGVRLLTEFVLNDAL

[1] = target: T2, Replicative DNA helicase DnaB (Mycobacterium tuberculosis, UniProt P9WMR3); test: DnaB intein splicing inhibitors, dose response, biochemical, cell-free fluorescence (AID 449749); assay type: functional
T2 sequence (P9WMR3 whole entry): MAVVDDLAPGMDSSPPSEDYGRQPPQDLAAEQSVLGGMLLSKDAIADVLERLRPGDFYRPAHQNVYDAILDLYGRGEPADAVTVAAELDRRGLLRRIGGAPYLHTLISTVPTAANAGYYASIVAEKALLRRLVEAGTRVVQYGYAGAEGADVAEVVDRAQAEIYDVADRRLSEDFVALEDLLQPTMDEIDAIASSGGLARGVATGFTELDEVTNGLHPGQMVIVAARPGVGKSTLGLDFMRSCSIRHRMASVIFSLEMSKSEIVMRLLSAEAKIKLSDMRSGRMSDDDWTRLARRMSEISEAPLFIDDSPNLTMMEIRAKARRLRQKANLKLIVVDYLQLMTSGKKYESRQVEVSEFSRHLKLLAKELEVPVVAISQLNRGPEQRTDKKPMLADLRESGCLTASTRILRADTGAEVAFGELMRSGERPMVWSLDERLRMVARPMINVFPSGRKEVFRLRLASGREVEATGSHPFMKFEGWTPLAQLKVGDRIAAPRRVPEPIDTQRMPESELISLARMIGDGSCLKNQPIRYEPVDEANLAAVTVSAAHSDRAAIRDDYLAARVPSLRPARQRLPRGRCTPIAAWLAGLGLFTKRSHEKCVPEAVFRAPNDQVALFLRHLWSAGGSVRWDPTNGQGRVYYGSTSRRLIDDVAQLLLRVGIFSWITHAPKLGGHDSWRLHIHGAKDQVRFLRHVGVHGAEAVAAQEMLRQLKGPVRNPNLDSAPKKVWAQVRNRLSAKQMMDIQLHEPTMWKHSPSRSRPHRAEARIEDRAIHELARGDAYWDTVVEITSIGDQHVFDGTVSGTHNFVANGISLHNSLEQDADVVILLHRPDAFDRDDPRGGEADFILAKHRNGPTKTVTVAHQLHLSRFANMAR

Protein RecA = target: T3, Protein RecA (Mycobacterium tuberculosis, UniProt P9WHJ3); test: Fluorescence Cell-Free Homogeneous Dose Retest to Identify Inhibitors of RecA-Intein Splicing Activity. [Related pubchem assays (depositor defined):AID2097, AID2223, AID489010, AID492950]; assay type: functional
T3 sequence (P9WHJ3 whole entry): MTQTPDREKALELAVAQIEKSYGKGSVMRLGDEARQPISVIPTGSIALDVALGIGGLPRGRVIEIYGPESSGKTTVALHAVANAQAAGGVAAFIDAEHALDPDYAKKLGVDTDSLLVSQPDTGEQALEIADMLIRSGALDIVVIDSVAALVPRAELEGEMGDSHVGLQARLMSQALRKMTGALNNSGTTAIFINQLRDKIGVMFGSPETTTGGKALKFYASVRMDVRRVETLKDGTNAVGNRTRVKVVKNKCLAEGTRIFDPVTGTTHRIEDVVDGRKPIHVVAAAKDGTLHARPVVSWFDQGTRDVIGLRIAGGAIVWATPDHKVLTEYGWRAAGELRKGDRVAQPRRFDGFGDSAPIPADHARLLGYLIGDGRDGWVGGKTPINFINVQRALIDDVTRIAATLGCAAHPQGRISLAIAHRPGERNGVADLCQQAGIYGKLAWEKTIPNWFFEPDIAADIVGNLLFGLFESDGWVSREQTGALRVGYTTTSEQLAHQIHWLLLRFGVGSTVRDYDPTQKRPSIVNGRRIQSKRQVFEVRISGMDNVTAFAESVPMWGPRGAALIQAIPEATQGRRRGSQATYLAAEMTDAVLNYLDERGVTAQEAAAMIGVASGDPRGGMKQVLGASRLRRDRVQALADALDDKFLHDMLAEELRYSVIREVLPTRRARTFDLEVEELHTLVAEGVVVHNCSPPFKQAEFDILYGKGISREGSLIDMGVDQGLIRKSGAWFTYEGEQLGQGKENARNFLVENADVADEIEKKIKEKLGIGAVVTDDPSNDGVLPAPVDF

[2] = target: Glyceraldehyde-3-phosphate dehydrogenase (Homo sapiens, UniProt P04406)
[3] = viability loss in THP-1 monocytes – THP-1 cells, cytotoxicity control for Vif-APOBEC3G degradation inhibitor project, dose response (AID 1117359); assay type: functional; conditions: THP-1
[4] = luciferase reporter signal suppression in cells – H4 neuroglioma cells, luminescence, dose response (AID 1990); assay type: functional, cell-based
[5] = target: T4, RNA-binding protein pos-1 (Caenorhabditis elegans, UniProt G5EF15); test: disruptors of C. elegans POS-1 RNA interaction – biochemical, fluorescence polarization, dose response (AID 1964);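 also: purified POS-1 fused to maltose binding protein made in E. coli; potency of compounds blocking POS-1 binding to fluorescent RNA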
T4 sequence (G5EF15 whole entry): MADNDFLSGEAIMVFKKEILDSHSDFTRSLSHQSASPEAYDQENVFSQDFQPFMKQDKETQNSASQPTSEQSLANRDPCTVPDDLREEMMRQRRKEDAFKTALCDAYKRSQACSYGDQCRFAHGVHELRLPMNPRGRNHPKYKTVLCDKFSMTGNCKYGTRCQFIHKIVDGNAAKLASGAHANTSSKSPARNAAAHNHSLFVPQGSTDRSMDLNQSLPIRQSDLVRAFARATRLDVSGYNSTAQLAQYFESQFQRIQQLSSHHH

[6] = Luminescence Cell-Based Dose Response HTS to Identify Inhibitors of 5'UTR Stem-Loop Driven Prion Protein mRNA Translation in H4 Neuroglioblastoma Cells. [Related pubchem assays: 1827 (Project Summary), 1813 (Primary HTS)]; assay type: functional
[7] = target: T5, Zinc finger protein mex-5 (Caenorhabditis elegans, UniProt Q9XUB2); test: potency of MEX-5 RNA-binding blockers – biochemical, C. elegans, fluorescence polarization, dose response (AID 1960)
T5 sequence (Q9XUB2 whole entry): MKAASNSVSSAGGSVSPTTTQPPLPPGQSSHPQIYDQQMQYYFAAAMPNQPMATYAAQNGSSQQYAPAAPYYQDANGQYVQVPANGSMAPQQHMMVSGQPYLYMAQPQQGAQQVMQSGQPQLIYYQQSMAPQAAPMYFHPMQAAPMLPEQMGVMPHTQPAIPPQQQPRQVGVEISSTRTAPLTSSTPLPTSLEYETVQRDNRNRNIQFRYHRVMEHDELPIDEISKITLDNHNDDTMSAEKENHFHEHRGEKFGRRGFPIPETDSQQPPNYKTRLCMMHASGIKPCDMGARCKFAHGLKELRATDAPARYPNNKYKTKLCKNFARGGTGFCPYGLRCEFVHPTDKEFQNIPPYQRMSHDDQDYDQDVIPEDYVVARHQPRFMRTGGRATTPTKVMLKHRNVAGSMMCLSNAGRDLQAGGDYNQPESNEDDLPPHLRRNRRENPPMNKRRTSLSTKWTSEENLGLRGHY

[8] = alpha-synuclein stem-loop luciferase translation blockers – H4 neuroglioma cells, luminescence, confirmation (AID 1988); assay type: functional, cell-based
[9] = target: Luciferin 4-monooxygenase (Photinus pyralis, UniProt P08659); test: inhibition of purified Photinus pyralis luciferase – biochemical, luminescence, dose response (AID 1891)
[10] = Luminescence Cell-Based Dose Confirmation HTS to Identify Inhibitors of Platelet Dense Granule Release. [Related pubchem assays: 1663 (Primary HTS), 1678 (Summary of Project)]; assay type: functional
HEK293 = test: EBV LMP1 TES2 canonical NF-kB signalling blockers – cell-based, HEK293, luciferase, cherry-pick, dose response (AID 588343); assay type: functional; conditions: Homo sapiens
cells = assay type: functional, cell-based
[11] = target: T6, Nuclear receptor subfamily 0 group B member 1 (Homo sapiens, UniProt P51843); assay type: functional, cell-based;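 also: HEK293T cells transfected with SF-1 and DAX-1 plus StAR promoter luciferase reporter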
T6 sequence (P51843 whole entry): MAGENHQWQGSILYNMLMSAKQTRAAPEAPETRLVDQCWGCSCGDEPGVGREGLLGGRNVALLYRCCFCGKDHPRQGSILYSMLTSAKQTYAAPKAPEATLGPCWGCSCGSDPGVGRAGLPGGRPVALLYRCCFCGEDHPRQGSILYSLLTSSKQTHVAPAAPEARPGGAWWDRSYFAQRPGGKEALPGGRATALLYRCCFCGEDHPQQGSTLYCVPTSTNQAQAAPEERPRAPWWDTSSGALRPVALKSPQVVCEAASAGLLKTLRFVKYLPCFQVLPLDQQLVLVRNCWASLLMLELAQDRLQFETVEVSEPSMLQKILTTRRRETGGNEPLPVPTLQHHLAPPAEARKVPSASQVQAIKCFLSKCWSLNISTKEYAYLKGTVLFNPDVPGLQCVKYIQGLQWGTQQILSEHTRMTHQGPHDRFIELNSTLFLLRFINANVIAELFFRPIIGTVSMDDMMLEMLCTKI

[12] = A549 cell cytotoxicity, dose response, cytotoxicity control, plate reader, cherry-pick, antagonist series (AID 743412); assay type: functional, cell-based
[13] = toxicity toward HepG2 liver cells – cell-based, plate reader, cherry-pick, antagonist series, cytotoxicity control, dose response (AID 743416); assay type: functional
[14] = blockers of bursicon-stimulated LGR2 cAMP reporter – cell-based, HEK293, CRE-luciferase reporter, cherry pick, set 2, dose response (AID 743343); assay type: functional;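 also: transfected cells were stimulated with diluted bursicon conditioned medium after compound addition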
[15] = blockade of melanocortin 4 receptor signaling – cell-based, plate reader, cherry pick, counter-screen for LGR2 antagonist project, dose response (AID 743444); assay type: functional;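 also: transfected HEK 293 cells stimulated with alpha-MSH peptide; potency of inhibitors of the alpha-MSH evoked signal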
[16] = viability loss in HEK293 cells – cell-based, plate reader, cherry-picked samples, cytotoxicity control, dose response (AID 743446); assay type: functional
[17] = target: T7, Heat shock factor protein 1 (Mus musculus, UniProt P38532); test: enhancement of HSF1-driven luciferase signal – cell-based, NIH3T3, luminescence, dose retest, confirmation (AID 435004); assay type: functional;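 also: stress induced by proteasome inhibitor MG132 added 30 min after compound; luciferase reporter driven by HSF1 response element in NIH3T3 cells; actives raise luminescence as potentiators of the MG132 stress response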
T7 sequence (P38532 whole entry): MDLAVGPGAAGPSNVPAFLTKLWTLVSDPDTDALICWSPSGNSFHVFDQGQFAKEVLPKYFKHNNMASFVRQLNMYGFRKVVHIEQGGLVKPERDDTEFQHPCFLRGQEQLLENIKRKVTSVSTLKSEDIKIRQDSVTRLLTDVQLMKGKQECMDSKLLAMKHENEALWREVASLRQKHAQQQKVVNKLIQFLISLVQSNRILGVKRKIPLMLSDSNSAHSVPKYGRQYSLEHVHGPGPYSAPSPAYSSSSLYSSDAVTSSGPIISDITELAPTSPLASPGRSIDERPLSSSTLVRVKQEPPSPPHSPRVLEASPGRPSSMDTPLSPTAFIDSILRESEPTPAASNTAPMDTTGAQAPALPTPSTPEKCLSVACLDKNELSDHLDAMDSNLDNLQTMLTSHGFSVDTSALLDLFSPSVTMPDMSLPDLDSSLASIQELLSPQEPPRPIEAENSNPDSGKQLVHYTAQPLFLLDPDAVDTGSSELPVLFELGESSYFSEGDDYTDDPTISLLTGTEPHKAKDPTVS

Chain of Glyceraldehyde-3-phosphate dehydrogenase (P04406 whole entry): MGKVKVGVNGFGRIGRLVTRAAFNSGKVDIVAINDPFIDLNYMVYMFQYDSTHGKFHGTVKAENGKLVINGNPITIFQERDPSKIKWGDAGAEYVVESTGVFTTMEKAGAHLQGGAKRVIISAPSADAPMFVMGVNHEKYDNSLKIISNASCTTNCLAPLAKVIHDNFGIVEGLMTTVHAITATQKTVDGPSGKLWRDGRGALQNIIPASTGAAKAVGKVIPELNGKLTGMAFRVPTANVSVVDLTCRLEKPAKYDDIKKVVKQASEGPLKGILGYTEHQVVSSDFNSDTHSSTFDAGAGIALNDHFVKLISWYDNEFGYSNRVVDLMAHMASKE
Chain of Luciferin 4-monooxygenase (P08659 whole entry): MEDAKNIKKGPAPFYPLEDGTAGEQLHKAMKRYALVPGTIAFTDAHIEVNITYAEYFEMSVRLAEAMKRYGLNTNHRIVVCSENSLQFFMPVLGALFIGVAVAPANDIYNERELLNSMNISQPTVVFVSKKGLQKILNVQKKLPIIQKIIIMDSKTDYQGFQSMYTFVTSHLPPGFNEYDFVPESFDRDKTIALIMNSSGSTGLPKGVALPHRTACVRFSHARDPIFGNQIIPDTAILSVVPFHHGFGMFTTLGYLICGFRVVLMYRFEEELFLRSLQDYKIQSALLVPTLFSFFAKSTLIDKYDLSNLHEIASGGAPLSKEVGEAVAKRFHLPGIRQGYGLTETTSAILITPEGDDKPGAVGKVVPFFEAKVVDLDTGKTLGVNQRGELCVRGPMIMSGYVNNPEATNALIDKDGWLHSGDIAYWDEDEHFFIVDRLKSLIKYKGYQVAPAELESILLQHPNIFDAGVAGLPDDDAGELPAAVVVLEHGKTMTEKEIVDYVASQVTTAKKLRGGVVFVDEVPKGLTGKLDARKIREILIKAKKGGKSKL

SMILES: CC(=O)N1CCC2(CC1)C(C#N)=C(N)Oc1[nH]nc(CSc3ccc(C)cc3)c12
- IC50 (Leucine aminopeptidase): 21.1 µM (active)
- AC50 [1]: 4.72 µM (active)
- EC50 (Protein RecA): 2.9 µM (active)

SMILES: Cc1oc(-c2cc(Cl)cc(Cl)c2)cc1C(=O)Nc1ccc(S(N)(=O)=O)cc1
- IC50 [2]: > 100 µM (not active)

SMILES: CC1CCc2[nH]c3ccc(C(=O)N(C)CC(=O)Nc4ccc(F)cc4)cc3c2C1 (configuration not stated)
- CC50 [3]: > 40 µM (active)

SMILES: Cc1nc2sc(-c3ccccc3)cc2c(=O)n1N
- EC50 [4]: 2.82 µM (active)
- EC50 [5]: > 300 µM (not active)
- EC50 [6]: 6.26 µM (active)
- EC50 [7]: > 300 µM (not active)
- EC50 [8]: 3.44 µM (active)
- EC50 [9]: 1.01 µM (active)
- EC50 [10]: 1.73 µM (active)
- AC50 (HEK293): 1.04 µM (active)
- IC50 (cells): > 67.6 µM (inactive)
- IC50 [11]: > 67.6 µM (inactive)
- AC50 [12]: 24.2 µM (active)
- AC50 [13]: 50 µM (active)
- AC50 [14]: 2.31 µM (active)
- AC50 [15]: 2.66 µM (active)
- AC50 [16]: 24.9 µM (active)

SMILES: O=C(O)C1CCCCC1C(=O)Nc1ccc2c(c1)CCC2 (configuration not stated)
- IC50 (Leucine aminopeptidase): 9.16 µM (active)
- EC50 [17]: > 260 µM (inactive)
